Results taken from patent US7267953B2, “Method for identification of modulators of pre-adipocyte differentiation” (AstraZeneca AB, priority 2001, dated 2007).

Columns and labels:
[1] = tested on: NIH/3T3 mouse fibroblasts; assay: Adipocyte differentiation of retrovirus infected NIH/3T3 fibroblasts, Oil Red O staining; type: cell-based; conditions: Oil Red O after 10 days
Excerpt: A classical way of studying the adipocyte differentiating potential of a gene is to overexpress it in either uncommitted NIH/3T3 fibroblasts or in 3T3-L1 preadipocytes using retroviral transfer. The adipocyte differentiating potential can then be assayed by microscopic examination and by staining with lipophilic dyes such as Oil Red O. O/E-1 was thus expressed in mouse NIH/3T3 fibroblasts, 3T3-L1 preadipocytes and mouse embryonic fibroblasts to investigate its adipocyte differentiating potential. cDNAs encoding mouse O/E-1, human O/E-1 and mouse PPARγ2 were cloned in the pBabepuro retrovirus vector. These retrovirus vectors as well as the empty vector were transiently transfected into Phoenix high efficiency packaging cells. Retroviruses containing supernatants were used to infect NIH/3T3 mouse fibroblasts. After puromycin (2 μg/ml) selection for two days, cells were allowed to grow to confluence after which adipogenic inducers were added (DIM, see above), after 10 days cells were stained with the lipophilic dye Oil Red O. As expected PPARγ induced some differentiation of NIH/3T3 mouse fibroblasts into lipid-containing cells that resembled cultured adipocytes in the presence of adipogenic inducers (FIG. 3). […] The ability of human O/E-1 to induce adipocyte differentiation of NIH/3T3 was also tested and found to be similar as that of mouse O/E-1 (Data not shown).

3T3-L1 preadipocytes = assay: Adipocyte differentiation of retrovirus infected 3T3-L1 preadipocytes, Oil Red O staining; type: cell-based, mouse; conditions: vector or O/E-1 infected 3T3-L1; 0.5 μM in combination with dexamethasone (1 μM); stained at day 3, 4 and 7
Excerpt: The fibroblastic 3T3-L1 preadipocyte cells have the capability to differentiate to adipocytes when given the proper hormonal stimulation, usually a combination of dexamethasone, insulin and isobutylmethylxanthine, as opposed to NIH/3T3 where overexpression of adipocyte differentiating factors is necessary to get adipocyte development. Untransformed mouse embryonic fibroblasts (MEF) can also be forced to adipocyte differentiation using the same adipogenic factors; the efficiency is however much lower than with 3T3-L1. […] Stable clones were selected 2-3 days using puromycin (2 μg/ml) and surviving cells were grown to confluence. 3T3-L1 cells differentiate to adipocytes at high rate when all adipogenic inducers are present and this could make it difficult discriminate the effect of an additional adipogenic signal. The cells were therefore induced with dexamethasone (1 μM) alone for two days or in combination with darglitazone (0.5 μM) throughout the experiment to get a low differentiation rate. MEF on the other hand develop into adipocytes quite inefficiently and were thus induced with the more powerful adipogenic combination of dexamethasone (1 μM), insulin (5 μg/ml) isobutylmethylxanthine (0.115 mg/ml) and darglitazone (0.5 μM) for two days, insulin and darglitazone for two days and darglitazone alone all through the experiment. […]

[2] = tested on: mouse embryonic fibroblasts (MEF); assay: Adipocyte differentiation of retrovirus infected mouse embryonic fibroblasts (MEF), Oil Red O staining; type: cell-based; conditions: Oil Red O at day 13 post-induction
Excerpt: The fibroblastic 3T3-L1 preadipocyte cells have the capability to differentiate to adipocytes when given the proper hormonal stimulation, usually a combination of dexamethasone, insulin and isobutylmethylxanthine, as opposed to NIH/3T3 where overexpression of adipocyte differentiating factors is necessary to get adipocyte development. Untransformed mouse embryonic fibroblasts (MEF) can also be forced to adipocyte differentiation using the same adipogenic factors; the efficiency is however much lower than with 3T3-L1. […] Stable clones were selected 2-3 days using puromycin (2 μg/ml) and surviving cells were grown to confluence. 3T3-L1 cells differentiate to adipocytes at high rate when all adipogenic inducers are present and this could make it difficult discriminate the effect of an additional adipogenic signal. The cells were therefore induced with dexamethasone (1 μM) alone for two days or in combination with darglitazone (0.5 μM) throughout the experiment to get a low differentiation rate. […] At day 13 post-induction adipate differentiation was measured by Oil Red O staining. […]

In the case of Cc1oc(-c2ccccc2)nc1CCC(=O)c1ccc(CC2SC(=O)NC2=O)cc1 (stereo not drawn) [darglitazone], the “differentiation into lipid-containing adipocyte-like cells” value ([1]; PPARγ2 infected NIH/3T3, 0.5 μM present throughout with adipogenic inducers (DIM)) is reported as “dramatic increase”, the development to adipocytes ([1]; mouse O/E-1 infected NIH/3T3, adipogenic inducers (DIM), 0.5 μM) is reported as “greatly enhanced” and the differentiation into adipocytes ([1]; vector infected NIH/3T3, adipogenic inducers (DIM), 0.5 μM) is reported as “No differentiation was observed”. The “overall rate of adipocyte differentiation” value (3T3-L1 preadipocytes) was “overall rate of differentiation was enhanced”, the adipocyte differentiation ([2]; human O/E-1 infected MEF) was “even further enhanced differentiation” and the “number of cells that developed into adipocytes” value ([2]; vector infected MEF, compared with vehicle) was “increased the number of cells that developed into adipocytes”.
